The record followed here is PMC11005426 (mBio, 2024).

This experiment has as its target T1, ASFV topo II ATPase domain (African swine fever virus, UniProt A0A2X0THW2).
T1 construct: gene P1192R CDS
As to conditions: Mg2+; ATP-binding site; 0.5 mM AMPPNP, 5 mM MgCl2, HEPES pH 7.5.

Structures are written as SMILES.

Consider `Nc1ncnc2c1ncn2[C@@H]1O[C@H](COP(=O)(O)OP(=O)(O)NP(=O)(O)O)[C@@H](O)[C@H]1O` [AMPPNP], for which the “X-ray crystal structure, 2.20 A” value was “crystal structure of the isolated ATPase domain from ASFV topo II in complex with AMPPNP”.
